Source: patent US4791215A, “Derivatives of glutamic acid and aspartic acid” (priority 1984, dated 1988)

Key:
[1] = system: activity of analgesic drugs; experiment: Hot-plate test, potentiation of analgesic drugs (Experiment 2); assay type: in vivo, rats; conditions: acetyl salicylic acid 100 mg/kg i.p. alone
Method: Experiment No. 2: Hot-plate test
The method is that described by Eddy et al. (J. Pharmac. Exp. Ther. 107, 385 (1953)).
Groups of five male rats having a weight of about 150 g, and which have not fasted, are used.
The animals are placed on a metal plate on the bottom of a transparent cylinder, which is heated to 55°±1° C. by an azeotropic boiling mixture (acetone-ethyl formate 1:1).
The reaction time is defined as the interval which passes between the moment at which the animal is placed on the hot-plate and the moment at which it either licks its feet or tries to jump out of the cylinder. The control reaction time is measured 10 and 5 minutes before administration of the drugs and 10, 20, 30, 45, 60 and 90 minutes afterwards. The animals are left on the plate for a maximum period of 30 seconds.
The response to the administration of the product is considered positive if at least a doubling of the normal reaction time is seen. The results obtained are given in Tables 2a and 2b which record the groups treated, the doses administered and the stay times on the plate expressed as the number of positive responses over the number treated.

morphine analgesia = experiment: Increase in analgesia of morphine, Tail Flick Test (Experiment 1); assay type: in vivo, rats; conditions: for percentage variation of latency of pain sensation / M (10-90) ± SE, mean percentage variation of latency: compound 10 mg/kg i.p. + morphine 2 mg/kg; for M (10-90) ± SE, mean percentage variation of latency: mean 10-90 min; for Power ratio with respect to morphine alone: rat, in vivo
Method: Experiment No: 1 Increase in analgesia of analgesic-narcotic drugs in rats by the Tail Flick Test
The method is that described by Harris et al. (J. Pharmacol. Exp. Ther. 143 (1964) 141-148).
Male rats are used having a weight of about 150-200 g which have not fasted. A point on the tail is chosen and irradiated by a heat source (75° C.) and the time (in seconds) for which the animal remains without moving its tail is measured.
A maximum period of time of 8 seconds under the heat source is chosen, after which the animal is, in any case, removed to avoid tissue damage. The measurement is effected before (controls) and after treatment with the drugs.
The percentage variation is calculated for each individual animal by the following formula: [formula] The measurements were carried out 10, 20, 30, 45, 60 and 90 minutes after treatment with the analgesics.

Structure (SMILES) | TOTAL positives [1] | positive responses over number treated ([1]; 10') | positive responses over number treated ([1]; 20') | positive responses over number treated ([1]; 30') | positive responses over number treated ([1]; 45') | positive responses over number treated ([1]; 60') | positive responses over number treated ([1]; 90') | percentage variation of latency of pain sensation (morphine analgesia; 10') | percentage variation of latency of pain sensation (morphine analgesia; 20') | percentage variation of latency of pain sensation (morphine analgesia; 30') | percentage variation of latency of pain sensation (morphine analgesia; 45') | percentage variation of latency of pain sensation (morphine analgesia; 60') | percentage variation of latency of pain sensation (morphine analgesia; 90') | M (10-90) ± SE, mean percentage variation of latency (morphine analgesia) | Power ratio with respect to morphine alone (morphine analgesia)
CC(=O)Oc1ccccc1C(=O)O [Acetyl Salicylic Acid, reference compound] | 8 x/30 | 1/5 | 2/5 | 2/5 | 2/5 | 0/5 | 1/5 |  |  |  |  |  |  |  | 
CCCN(CCC)C(=O)C(CCC(=O)O)NC(=O)c1ccc(CC(C)C)cc1 (stereo not drawn) [Compound C-38] |  |  |  |  |  |  |  | 53.8% | 85.7 ± 10% | 92.0 ± 8% | 99.1 ± 1% | 91.2 ± 9% | 51.1 ± 14% | 78.8% | 2.64
CCN(CC)C(=O)C(CCC(=O)O)NC(=O)c1ccc(C)c(C)c1 (stereo not drawn) [Compound C-40] |  |  |  |  |  |  |  | 43.8 ± 15% | 69.1% | 49.0 ± 23% | 85.6 ± 6% | 76.5 ± 17% | 61.5 ± 14% | 64.2 ± 16% | 2.15
CCCCNC(=O)C(CCC(=O)O)NC(=O)c1ccc(CC)cc1 (stereo not drawn) [Compound C-43] |  |  |  |  |  |  |  | 54.1 ± 17% | 44.4 ± 23% | 38.9 ± 26% | 36.8 ± 27% | 47.8 ± 23% | 22.5 ± 13% | 40.7 ± 11% | 1.36
CCCCNC(=O)C(CCC(=O)O)NC(=O)c1ccc(CCC)cc1 (stereo not drawn) [Compound C-44] |  |  |  |  |  |  |  | -1.6 ± 11% | 17.0 ± 6% | 24.9% | 26.9 ± 19% | 35.1 ± 17% | 39.8 ± 8% | 23.7 ± 15% | 0.79
CCCNC(=O)C(CCC(=O)O)NC(=O)c1ccc(C)c(C)c1 (stereo not drawn) [Compound C-45] |  |  |  |  |  |  |  | 57.2 ± 18% | 99.7 ± 0.3% | 95.7 ± 4% | 93.1 ± 7% | 77.7 ± 11% | 80.4% | 84.0 ± 16% | 2.82
CC(C)c1ccc(C(=O)NC(CCC(=O)O)C(=O)NC2CCCCC2)cc1 (stereo not drawn) [Compound C-49] |  |  |  |  |  |  |  | 62.1 ± 9% | 100.0 ± 0% | 97.6 ± 2% | 99.5 ± 0.5% | 99.2 ± 0.5% | 65.8 ± 0.8% | 87.4% | 2.93
Cc1ccc(C(=O)NC(CCC(=O)O)C(=O)N(C)C)cc1C (stereo not drawn) [Compound C-50] |  |  |  |  |  |  |  | 22.3 ± 13% | 68.9 ± 9% | 60.2 ± 19% | 49.4 ± 14% | 73.5 ± 15% | 24.7 ± 6% | 49.8 ± 22% | 1.67
Cc1ccc(C(=O)NC(CCC(=O)O)C(=O)N2CCOCC2)cc1C (stereo not drawn) [Compound C-51] |  |  |  |  |  |  |  | 78.7 ± 18% | 82.8% | 90.5 ± 10% | 86.4 ± 14% | 65.6 ± 13% | 48.5 ± 10% | 75.4 ± 16% | 2.53
Cc1ccc(C(=O)NC(CCC(=O)O)C(=O)N2CCCCC2)cc1C (stereo not drawn) [Compound C-52] |  |  |  |  |  |  |  | 72.8 ± 15% | 95.8 ± 3% | 96.3 ± 4% | 85.5 ± 10% | 87.6% | 45.3 ± 6% | 80.6 ± 19% | 2.70
CCCCN(CCCC)C(=O)C(CCC(=O)O)NC(=O)c1cccc(C)c1 (stereo not drawn) [Compound C-53] |  |  |  |  |  |  |  | 31.2 ± 15% | 46.7 ± 28% | 70.2 ± 23% | 76.9 ± 22% | 45.6 ± 27% | 12.6 ± 25% | 47.2 ± 24% | 1.58
CCCCNC(=O)CCC(NC(=O)c1ccc(CC)cc1)C(=O)O [Compound D-13] |  |  |  |  |  |  |  | 7.1 ± 8% | 32% | 62.5 ± 23% | 31.8 ± 21% | 48.5 ± 22% | 50.9 ± 14% | 38.8 ± 20% | 1.30
CCCCNC(=O)CCC(NC(=O)c1ccc(CCC)cc1)C(=O)O [Compound D-14] |  |  |  |  |  |  |  | 69.2 ± 14% | 93.4 ± 7% | 46.8 ± 15% | 71.3 ± 17% | 89.1 ± 9% | 60.3% | 71.1 ± 14% | 2.41
CCCNC(=O)CCC(NC(=O)c1ccc(C)c(C)c1)C(=O)O [Compound D-16] |  |  |  |  |  |  |  | 29.7 ± 21% | 42.8 ± 18% | 40.1 ± 22% | 35.4 ± 18% | 33.3 ± 20% | 23.3% | 34.1 ± 17% | 1.14
